Measured values published in patent publication US20110251286A1, “Crystalline salts and/or co-crystals of O-desmethyltramadol” (GRUENENTHAL GmbH, priority 2010, published 2011).

Tests used:
[1] = Release in artificial intestinal juice; assay type: physicochemical; settings: for release rate compared to the hydrochloride salt: in artificial intestinal juice
Method: Investigations on release were carried out in a Sotax AT7 smart release apparatus with UV measurement (Perkin Elmer photometer).
A vessel with Wood apparatus was used (for intrinsic release).
A pressing of 0.5 cm^2 surface area (diameter 8 mm) was produced with a force of 200 N using approximately 100 mg of active ingredient.
Release was carried out in a release medium, which is composed as described below: • Intestinal juice without pancreas powder, pH 6.8 (analogous to Ph. Eur.); 250.0 ml 6.8 g of potassium dihydrogenphosphate R+0.896 g of NaOH+water to 1000.0 ml.
Release was carried out in a release volume of in each case 500±5 ml at a temperature of the release medium of 37±1° C. with a stirring speed of 100±5 rpm.
The content determination was carried out by means of spectroscopic methods (UV spectroscopy, wavelength: 271 nm, cuvette: 10 mm). Sample taking was carried out manually.
In this release experiment, the individual compounds were placed in a permeable bag in an amount in each case calculated on 100 mg of the free base.
The results, expressed in percent of the substance released, are reproduced in the following tables. In this case, the compounds denote: HCl: hydrochloride; A: cinnamate; B: palmitate; C: decanoate; E: hemi-fumarate and F: hemi-sebacate.

[2] = Dynamic vapor sorption (DVS): sorption and desorption of moisture; assay type: physicochemical
Method: Investigations on the sorption and desorption of moisture (dynamic vapor sorption, DVS): DVS measurements were carried out on an apparatus of the type DVS 1000 from Porotec. The evaluation of the measurements was carried out using software from Surface Measurement Systems. At a temperature between 23° C. and 26° C., starting from a relative humidity of 50%, within 240 minutes the relative humidity first increased to 90% and then fell to 0%. This cycle was repeated a second time. The DVS charts shown are isothermal recordings (plots) of the change in the mass in % (change in mass—dry) as a function of the desired relative humidity in % (target RH). Correspondingly, the axes of the graphs are marked by ΔM [%] and RH [%]. The measurement curves of the first sorption are designated by 1-S, the subsequent first desorption by 1-D, the second sorption by 2-S and the second desorption by 2-D. Advantageously, mass changes between the sorption and desorption phase are as low as possible.

[3] = Determination of equilibrium solubilities in aqueous solutions at various pHs; settings: thermodynamic from solid
Method: The equilibrium solubilities of the compounds investigated were determined in aqueous solutions at various pHs and the pH-dependent solubility profile and the solubilities at different pHs were compared here. In this case, the content determination was carried out by means of capillary electrophoresis.

## CN(C)CC1CCCCC1(O)c1cccc(O)c1.CN(C)CC1CCCCC1(O)c1cccc(O)c1.O=C(O)CCCCCCCCC(=O)O (stereo not drawn) [hemi-sebacate]
[1]
  release rate compared to the hydrochloride salt: decreased release rates compared to the hydrochloride salt
[2]; DVS 1st cycle, RH 0.0%
  ΔM Desorption: 0.0000%
[2]; DVS 1st cycle, RH 10.0%
  ΔM Desorption: 0.0235%
[2]; DVS 1st cycle, RH 20.0%
  ΔM Desorption: 0.0308%
[2]; DVS 1st cycle, RH 30.0%
  ΔM Desorption: 0.0323%
[2]; DVS 1st cycle, RH 40.0%
  ΔM Desorption: 0.0338%
[2]; DVS 1st cycle, RH 50.0%
  ΔM Desorption: 0.0323%
  ΔM Hysteresis: −0.0382%
  ΔM Sorption: 0.0704%
[2]; DVS 1st cycle, RH 60.0%
  ΔM Desorption: 0.0293%
  ΔM Hysteresis: −0.0396%
  ΔM Sorption: 0.0690%
[2]; DVS 1st cycle, RH 70.0%
  ΔM Desorption: 0.0220%
  ΔM Hysteresis: −0.0132%
  ΔM Sorption: 0.0352%
[2]; DVS 1st cycle, RH 80.0%
  ΔM Desorption: 0.0088%
  ΔM Hysteresis: 0.0205%
  ΔM Sorption: −0.0117%
[2]; DVS 1st cycle, RH 90.0%
  ΔM Desorption: −0.0499%
  ΔM Sorption: −0.0499%
[2]; DVS 2nd cycle, RH 0.0%
  ΔM Desorption: 0.1585%
  ΔM Sorption: 0.0000%
[2]; DVS 2nd cycle, RH 10.0%
  ΔM Desorption: 0.1790%
  ΔM Hysteresis: 0.1438%
  ΔM Sorption: 0.0352%
[2]; DVS 2nd cycle, RH 20.0%
  ΔM Desorption: 0.1834%
  ΔM Hysteresis: 0.1291%
  ΔM Sorption: 0.0543%
[2]; DVS 2nd cycle, RH 30.0%
  ΔM Desorption: 0.1878%
  ΔM Hysteresis: 0.1174%
  ΔM Sorption: 0.0704%
[2]; DVS 2nd cycle, RH 40.0%
  ΔM Desorption: 0.1922%
  ΔM Hysteresis: 0.1042%
  ΔM Sorption: 0.0880%
[2]; DVS 2nd cycle, RH 50.0%
  ΔM Desorption: 0.1849%
  ΔM Hysteresis: 0.0880%
  ΔM Sorption: 0.0968%
[2]; DVS 2nd cycle, RH 60.0%
  ΔM Desorption: 0.1761%
  ΔM Hysteresis: 0.0704%
  ΔM Sorption: 0.1057%
[2]; DVS 2nd cycle, RH 70.0%
  ΔM Desorption: 0.1629%
  ΔM Hysteresis: 0.0719%
  ΔM Sorption: 0.0910%
[2]; DVS 2nd cycle, RH 80.0%
  ΔM Desorption: 0.1350%
  ΔM Hysteresis: 0.0616%
  ΔM Sorption: 0.0734%
[2]; DVS 2nd cycle, RH 90.0%
  ΔM Desorption: 0.0484%
  ΔM Sorption: 0.0484%
[2]; DVS 3rd cycle (partial), RH 0.0%
  ΔM Sorption: 0.1585%
[2]; DVS 3rd cycle (partial), RH 10.0%
  ΔM Sorption: 0.1937%
[2]; DVS 3rd cycle (partial), RH 20.0%
  ΔM Sorption: 0.2113%
[2]; DVS 3rd cycle (partial), RH 30.0%
  ΔM Sorption: 0.2245%
[2]; DVS 3rd cycle (partial), RH 40.0%
  ΔM Sorption: 0.2377%
[2]; DVS 3rd cycle (partial), RH 50.0%
  ΔM Sorption: 0.2465%

## CN(C)C[C@H]1CCCC[C@]1(O)c1cccc(O)c1.Cl [hydrochloride, (+)-(1R,2R)-3-[2-(dimethylamino)methyl-1-hydroxycyclohexyl]phenol hydrochloride]
[3]; aqueous with cosolvent or surfactant or cyclodextrin
  solubility thermodynamic: 1090 mM
[3]; pH 1.4, simulated gastric fluid
  solubility thermodynamic: 582 mM
[3]; pH 4.3, aqueous buffer
  solubility thermodynamic: 666 mM
[3]; pH 6.8, aqueous buffer
  solubility thermodynamic: 698 mM
[3]; pH 7.4, aqueous buffer
  solubility thermodynamic: 867 mM
[3]; pH 11, aqueous buffer
  solubility thermodynamic: 979 mM
[3]; water
  solubility thermodynamic: 983 mM
[1]; after two to 4 minutes, artificial intestinal juice pH 6.8, 37 °C
  substance passed into the artificial intestinal fluid: ~100%

## palmitate
[1]; Experiments B-1 and B-2
  release behaviour in artificial intestinal juice: more intensely prolonged release
[1]
  release rate compared to the hydrochloride salt: decreased release rates compared to the hydrochloride salt
[2]; 1st cycle, RH 0.0 %
  ΔM Desorption: 0.0000%
[2]; 1st cycle, RH 10.0 %
  ΔM Desorption: 0.0083%
[2]; 1st cycle, RH 20.0 %
  ΔM Desorption: 0.0148%
[2]; 1st cycle, RH 30.0 %
  ΔM Desorption: 0.0234%
[2]; 1st cycle, RH 40.0 %
  ΔM Desorption: 0.0353%
[2]; 1st cycle, RH 50.0 %
  ΔM Desorption: 0.0472%
  ΔM Hysteresis: 0.0027%
  ΔM Sorption: 0.0445%
[2]; 1st cycle, RH 60.0 %
  ΔM Desorption: 0.0896%
  ΔM Hysteresis: 0.0374%
  ΔM Sorption: 0.0522%
[2]; 1st cycle, RH 70.0 %
  ΔM Desorption: 0.1139%
  ΔM Hysteresis: 0.0412%
  ΔM Sorption: 0.0727%
[2]; 1st cycle, RH 80.0 %
  ΔM Desorption: 0.1406%
  ΔM Hysteresis: 0.0347%
  ΔM Sorption: 0.1059%
[2]; 1st cycle, RH 90.0 %
  ΔM Desorption: 0.1531%
  ΔM Sorption: 0.1531%
[2]; 2nd cycle, RH 0.0 %
  ΔM Desorption: 0.0172%
  ΔM Sorption: 0.0000%
[2]; 2nd cycle, RH 10.0 %
  ΔM Desorption: 0.0303%
  ΔM Hysteresis: 0.0202%
  ΔM Sorption: 0.0101%
[2]; 2nd cycle, RH 20.0 %
  ΔM Desorption: 0.0421%
  ΔM Hysteresis: 0.0211%
  ΔM Sorption: 0.0211%
[2]; 2nd cycle, RH 30.0 %
  ΔM Desorption: 0.0552%
  ΔM Hysteresis: 0.0225%
  ΔM Sorption: 0.0326%
[2]; 2nd cycle, RH 40.0 %
  ΔM Desorption: 0.0679%
  ΔM Hysteresis: 0.0237%
  ΔM Sorption: 0.0442%
[2]; 2nd cycle, RH 50.0 %
  ΔM Desorption: 0.0837%
  ΔM Hysteresis: 0.0234%
  ΔM Sorption: 0.0602%
[2]; 2nd cycle, RH 60.0 %
  ΔM Desorption: 0.1344%
  ΔM Hysteresis: 0.0573%
  ΔM Sorption: 0.0771%
[2]; 2nd cycle, RH 70.0 %
  ΔM Desorption: 0.1640%
  ΔM Hysteresis: 0.0739%
  ΔM Sorption: 0.0902%
[2]; 2nd cycle, RH 80.0 %
  ΔM Desorption: 0.1827%
  ΔM Hysteresis: 0.0495%
  ΔM Sorption: 0.1332%
[2]; 2nd cycle, RH 90.0 %
  ΔM Desorption: 0.1771%
  ΔM Sorption: 0.1771%
[2]; 3rd cycle, RH 0.0 %
  ΔM Sorption: 0.0172%
[2]; 3rd cycle, RH 10.0 %
  ΔM Sorption: 0.0231%
[2]; 3rd cycle, RH 20.0 %
  ΔM Sorption: 0.0306%
[2]; 3rd cycle, RH 30.0 %
  ΔM Sorption: 0.0392%
[2]; 3rd cycle, RH 40.0 %
  ΔM Sorption: 0.0498%
[2]; 3rd cycle, RH 50.0 %
  ΔM Sorption: 0.0650%
